Data: ChEMBL document CHEMBL4699665, “Discovery of ANT3310, a Novel Broad-Spectrum Serine β-Lactamase Inhibitor of the Diazabicyclooctane Class, Which Strongly Potentiates Meropenem Activity against Carbapenem-Resistant Enterobacterales and Acinetobacter baumannii” (J Med Chem, 2020)

Key:
[1] = tested on: Klebsiella pneumoniae; assay: Potentiation of meropenem-induced antibacterial activity against Klebsiella Pneumoniae ACC-00783 expressing OXA-48 infected in CD-1 mouse assessed as reduction in bacterial burden co administered with 300 mg/kg, iv meropenem; type: functional, organism-based; settings: dose mg/kg 25-100
[2] = tested on: Enterobacter; assay: Inhibition of beta lactamase OXA in carbapenem-resistant Enterobacter assessed as meropenem minimum concentration required for antibacterial activity at 4 ug/ml by broth microdilution method (reference value: 2 ug/ml); settings: dose 4.0 µg/ml
[3] = tested on: Klebsiella pneumoniae; assay: Potentiation of meropenem-induced antibacterial activity against Klebsiella pneumoniae expressing TEM-1/SHV-11/KPC-3 assessed as meropenem MIC at 4 ug/ml by broth microdilution method (reference value: 128 ug/ml); type: functional; settings: dose 4 µg/ml
[4] = tested on: Enterobacter; assay: Inhibition of beta lactamase OXA in carbapenem-resistant Enterobacter assessed as meropenem-induced antibacterial activity by measuring meropenem MIC 90 at 4 ug/ml by broth microdilution method (Rvb >32 ug/ml); settings: dose 4.0 µg/ml
[5] = tested on: Enterobacter; assay: Inhibition of beta lactamase KPC in carbapenem-resistant Enterobacter assessed as meropenem maximum concentration required for antibacterial activity at 4 ug/ml by broth microdilution method (Rvb >32 ug/ml); settings: dose 4.0 µg/ml
[6] = tested on: Enterobacter cloacae; assay: Potentiation of meropenem-induced antibacterial activity against Enterobacter cloacae expressing TEM-1/KPC-2 assessed as meropenem MIC at 4 ug/ml by broth microdilution method (reference value: 8 ug/ml); type: functional; settings: dose 4 µg/ml
[7] = Inhibition of beta lactamase KPC-2 in Enterobacter cloacae assessed as decrease in enzyme activity using nitrocefin as substrate preincubated for 10 mins followed by substrate addition measured for 10 mins by fluorescence plate reader analysis
[8] = tested on: Enterobacter cloacae; assay: Antibacterial activity against Enterobacter cloacae expressing TEM-1/KPC-2 by broth microdilution method; type: functional
[9] = tested on: Klebsiella pneumoniae; assay: Antibacterial activity against Klebsiella pneumoniae expressing SHV-11/OXA-181 by broth microdilution method; type: functional
[10] = tested on: Enterobacter; assay: Inhibition of beta lactamase KPC in carbapenem-resistant Enterobacter assessed as meropenem minimum concentration required for antibacterial activity at 4 ug/ml by broth microdilution method (reference value: 4 ug/ml); settings: dose 4.0 µg/ml
[11] = Stability in human plasma assessed as parent compound remaining after 1 hr; type: ADME, cell-free; settings: read-out: Stabilty
[12] = Inhibition of bacteria beta lactamase OXA-23 assessed as decrease in enzyme activity using nitrocefin as substrate preincubated for 10 mins followed by substrate addition measured for 10 mins by fluorescence plate reader analysis
[13] = tested on: Acinetobacter baumannii; assay: Potentiation of meropenem-induced antibacterial activity against Acinetobacter baumannii expressing OXA-23 assessed as meropenem MIC at 4 ug/ml by broth microdilution method (reference value: 32 ug/ml); type: functional; settings: dose 4 µg/ml
[14] = Inhibition of beta lactamase OXA-48 in Enterobacter cloacae assessed as decrease in enzyme activity using nitrocefin as substrate preincubated for 10 mins followed by substrate addition measured for 10 mins by fluorescence plate reader analysis
[15] = tested on: Enterobacter; assay: Inhibition of beta lactamase OXA in carbapenem-resistant Enterobacter assessed as meropenem maximum concentration required for antibacterial activity at 4 ug/ml by broth microdilution method (Rvb > 32 ug/ml); settings: dose 4.0 µg/ml
[16] = Volume of distribution in rat at 1 mg/kg, iv; type: ADME, organism-based; settings: in vivo
[17] = Plasma protein binding in rat assessed as fraction unbound by LC-MS/MS analysis; type: ADME, cell-free
[18] = molecular target: Cytochrome P450 3A4 (Homo sapiens, UniProt P08684); assay: Inhibition of CYP3A4 in human liver microsomes in presence of NADPH by LC-MS/MS analysis; type: ADME
[19] = AUC in rat at 1 mg/kg, iv; type: ADME, organism-based; parameters: dose 1 mg/kg; settings: in vivo
[20] = Plasma protein binding in mouse assessed as fraction unbound by LC-MS/MS analysis; type: ADME, cell-free
[21] = Genotoxicity in Salmonella typhimurium by Ames test; type: toxicity; settings: salmonella enterica subsp. enterica serovar typhimurium
[22] = Inhibition of beta lactamase AmpC in Enterobacter cloacae assessed as decrease in enzyme activity using nitrocefin as substrate preincubated for 10 mins followed by substrate addition measured for 10 mins by fluorescence plate reader analysis
[23] = tested on: Klebsiella pneumoniae; assay: Potentiation of meropenem-induced antibacterial activity against Klebsiella pneumoniae expressing TEM-OSBL/CTX-M-14/OXA-48 assessed as meropenem MIC at 4 ug/ml by broth microdilution method (reference value: 16 ug/ml); type: functional; settings: dose 4 µg/ml
[24] = Plasma protein binding in dog assessed as fraction unbound by LC-MS/MS analysis; type: ADME, cell-free, Canis lupus familiaris
[25] = Intrinsic clearance in dog hepatocytes assessed per million cells; type: ADME, cell-based, Canis lupus familiaris, Hepatocyte; settings: read-out: CLH
[26] = Half life in rat at 1 mg/kg, iv; type: ADME, organism-based; settings: in vivo
[27] = tested on: Acinetobacter baumannii; assay: Inhibition of beta lactamase OXA in carbapenem-resistant Acinetobacter baumannii assessed as meropenem maximum concentration required for antibacterial activity at 4 ug/ml by broth microdilution method (Rvb > 32 ug/ml); settings: dose 4.0 µg/ml
[28] = Plasma protein binding in human assessed as fraction unbound by LC-MS/MS analysis; type: ADME, cell-free
[29] = Clearance in rat at 1 mg/kg, iv; type: ADME, organism-based; settings: in vivo
[30] = tested on: Klebsiella pneumoniae; assay: Potentiation of meropenem-induced antibacterial activity against Klebsiella pneumoniae expressing SHV-11/OXA-121 assessed as meropenem MIC at 4 ug/ml by broth microdilution method (reference value: 16 ug/ml); type: functional; settings: dose 4 µg/ml
[31] = tested on: Enterobacter; assay: Inhibition of beta lactamase KPC in carbapenem-resistant Enterobacter assessed as meropenem-induced antibacterial activity by measuring meropenem MIC90 at 4 ug/ml by broth microdilution method (Rvb >32 ug/ml); settings: dose 4.0 µg/ml
[32] = Stability in mouse plasma assessed as parent compound remaining after 1 hr; type: ADME, cell-free; settings: read-out: Stabilty
[33] = Inhibition of beta lactamase TEM-1 in Enterobacter cloacae assessed as decrease in enzyme activity using nitrocefin as substrate preincubated for 10 mins followed by substrate addition measured for 10 mins by fluorescence plate reader analysis
[34] = Cytotoxicity against human HepG2 cells; type: cell-based
[35] = Stability in rat plasma assessed as parent compound remaining after 1 hr; type: ADME, cell-free; settings: read-out: Stabilty

Chain of Cytochrome P450 3A4 (P08684 whole entry): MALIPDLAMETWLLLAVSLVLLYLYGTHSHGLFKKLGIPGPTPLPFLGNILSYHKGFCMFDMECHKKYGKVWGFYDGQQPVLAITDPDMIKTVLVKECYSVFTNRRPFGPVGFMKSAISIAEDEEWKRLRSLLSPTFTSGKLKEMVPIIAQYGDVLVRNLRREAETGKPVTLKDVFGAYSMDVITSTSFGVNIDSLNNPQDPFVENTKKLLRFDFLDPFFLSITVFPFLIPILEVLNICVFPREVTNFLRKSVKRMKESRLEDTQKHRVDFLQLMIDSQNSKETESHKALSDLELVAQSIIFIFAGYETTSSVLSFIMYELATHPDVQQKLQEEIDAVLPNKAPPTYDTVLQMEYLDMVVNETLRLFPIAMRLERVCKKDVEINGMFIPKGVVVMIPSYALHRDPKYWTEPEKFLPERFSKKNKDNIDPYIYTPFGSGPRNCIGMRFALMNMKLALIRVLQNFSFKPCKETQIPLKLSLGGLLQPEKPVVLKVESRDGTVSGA

Q: With `O=C1N2C[C@@H](CC[C@H]2F)N1OS(=O)(=O)[O-].[Na+]` as the compound, how does the Activity [1] read?
A: Dose-dependent effect

Q: And the MIC [2]?
A: < 0.03 µg/mL

Q: And the MIC [3]?
A: 1 µg/mL

Q: What about the MIC90 [4] of the same compound?
A: 1 µg/mL

Q: And the Activity [5]?
A: 16 µg/mL

Q: What about the MIC [6] of the same compound?
A: 0.03 µg/mL

Q: And the IC50 [7]?
A: 0.019 µM

Q: And the MIC [8]?
A: 128 µg/mL

Q: What about the MIC [9] of the same compound?
A: 128 µg/mL

Q: What about the MIC [10] of the same compound?
A: < 0.03 µg/mL

Q: What about the remaining at 1 h [11] of the same compound?
A: 79%

Q: What about the IC50 [12] of the same compound?
A: 0.05 µM

Q: What about the MIC [13] of the same compound?
A: 2 µg/mL

Q: And the IC50 [14]?
A: 0.175 µM

Q: What about the Activity [15] of the same compound?
A: 2 µg/mL

Q: And the Vd [16]?
A: 2.2 L/kg

Q: And the fraction unbound [17]?
A: > 0.93

Q: And the IC50 [18]?
A: > 50 µM

Q: And the AUC [19]?
A: 412 ng·h/mL

Q: What about the fraction unbound [20] of the same compound?
A: > 0.93

Q: What about the Activity [21] of the same compound?
A: Non-Toxic

Q: What about the IC50 [22] of the same compound?
A: 0.01 µM

Q: What about the MIC [23] of the same compound?
A: 0.25 µg/mL

Q: What about the fraction unbound [24] of the same compound?
A: > 0.93

Q: What about the hepatocyte CLint [25] of the same compound?
A: < 3 µL/min/1e6 cells

Q: What about the half-life [26] of the same compound?
A: 38.4 min

Q: What about the Activity [27] of the same compound?
A: > 32 µg/mL

Q: What about the fraction unbound [28] of the same compound?
A: > 0.93

Q: And the clearance [29]?
A: 40 mL/min/kg

Q: What about the MIC [30] of the same compound?
A: 1 µg/mL

Q: What about the MIC90 [31] of the same compound?
A: 1 µg/mL

Q: And the remaining at 1 h [32]?
A: 90%

Q: What about the IC50 [33] of the same compound?
A: 0.001 µM

Q: What about the CC50 [34] of the same compound?
A: > 100 µM

Q: What about the remaining at 1 h [35] of the same compound?
A: 55%
